According to patent US7304174B2, “CaSR antagonist” (Japan Tobacco Inc., priority 2003, dated 2007):

Molecular target: T1, human calcium receptor (Homo sapiens, UniProt P41180)
T1 construct: expressed in transfected cells; host or cells: cell strain derived from rat adrenal, co-transformed with luciferase cDNA
T1 sequence (P41180 20-1078): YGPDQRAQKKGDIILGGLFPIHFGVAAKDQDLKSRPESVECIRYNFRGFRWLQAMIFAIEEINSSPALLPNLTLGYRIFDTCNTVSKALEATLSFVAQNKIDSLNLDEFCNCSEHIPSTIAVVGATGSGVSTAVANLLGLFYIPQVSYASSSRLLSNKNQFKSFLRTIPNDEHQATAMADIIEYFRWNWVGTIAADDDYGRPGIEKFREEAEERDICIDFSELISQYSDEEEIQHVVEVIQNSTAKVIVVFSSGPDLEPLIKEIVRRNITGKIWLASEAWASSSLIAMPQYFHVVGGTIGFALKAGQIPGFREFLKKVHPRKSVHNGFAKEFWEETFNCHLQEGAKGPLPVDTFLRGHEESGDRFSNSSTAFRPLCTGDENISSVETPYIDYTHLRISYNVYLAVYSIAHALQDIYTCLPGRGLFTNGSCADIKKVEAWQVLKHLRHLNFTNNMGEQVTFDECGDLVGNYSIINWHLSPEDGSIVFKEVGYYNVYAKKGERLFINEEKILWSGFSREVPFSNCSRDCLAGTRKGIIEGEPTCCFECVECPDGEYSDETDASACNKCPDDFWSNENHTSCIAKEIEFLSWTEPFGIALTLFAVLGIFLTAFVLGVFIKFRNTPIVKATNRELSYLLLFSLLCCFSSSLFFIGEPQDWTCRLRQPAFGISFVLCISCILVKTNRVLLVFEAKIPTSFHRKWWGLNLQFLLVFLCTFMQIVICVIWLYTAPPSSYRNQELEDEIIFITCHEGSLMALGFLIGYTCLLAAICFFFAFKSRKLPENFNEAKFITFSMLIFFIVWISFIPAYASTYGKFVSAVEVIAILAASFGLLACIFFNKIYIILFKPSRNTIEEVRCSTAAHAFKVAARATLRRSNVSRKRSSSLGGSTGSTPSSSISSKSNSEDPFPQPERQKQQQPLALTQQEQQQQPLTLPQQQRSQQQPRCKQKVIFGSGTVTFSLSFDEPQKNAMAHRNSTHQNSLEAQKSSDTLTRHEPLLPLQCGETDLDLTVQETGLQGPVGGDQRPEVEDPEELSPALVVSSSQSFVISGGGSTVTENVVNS
Assay: Evaluation of antagonistic action on calcium receptor using reporter gene (luciferase)
Type: cell-based
Settings: transformed rat adrenal derived cells, 5 mM calcium chloride, culture 4 hrs, luciferase activity; read-out: Reporter gene assay (IC50, concentration showing 50% inhibitory rate)
Procedure: Evaluation of Antagonistic Action on Calcium Receptor Using Reporter Gene
Luciferase cDNA and human calcium receptor cDNA were introduced into a cell strain derived from rat adrenal to transform the cells, and the transformed cells were cultured in a medium (80 μl, F12 medium containing 0.5% dialyzed horse serum and 0.25% dialyzed bovine fetal serum). A dimethyl sulfoxide solution containing a test compound at 0.1-10000 μM was diluted 100-fold with the medium and added to the test compound group at 10 μl per well (dimethyl sulfoxide final concentration 0.1%). In the same manner as in test compound group, dimethyl sulfoxide 100-fold diluted with medium was added to a control group and a blank group. Then, 50 mM calcium chloride-containing medium was added to every well except the blank group at 10 μl per well (final concentration 5 mM). A medium containing 50 mM calcium chloride was added to the control group at 10 μl per well, such that the final calcium concentration of the medium became 5 mM. A medium alone was added to the blank group. After culture for 4 hrs, luciferase substrate was added and the luciferase activity was measured with a photoluminometer. The inhibitory rate (%) was calculated from the obtained measured values according to the following formula.
Based on the results, the concentration (IC50) showing 50% inhibitory rate was determined. The results are shown in the aforementioned Tables 1 to 60.

Row | Structure (SMILES) | IC50 [nM]
1 | Cc1cc(-c2ccccc2[C@@H](C)OC[C@H](O)CNC(C)(C)Cc2cc(F)c(Cl)cc2F)ccc1C(=O)O [Example 1-25, 2′-[1-[(2R)-3-[[1-(4-chloro-2,5-difluorophenyl)-2-methylpropan-2-yl]amino]-2-hydroxypropoxy]ethyl]-3-methylbiphenyl-4-carboxylic acid] | 19
2 | CC(OC[C@H](O)CNC(C)(C)Cc1ccc2ccccc2c1)c1ccccc1-c1ccc(C(=O)O)c(C(F)(F)F)c1 (stereo partly drawn) [Example 1-28, 2′-[1-[(2R)-3-[[1-(naphthalen-2-yl)-2-methylpropan-2-yl]amino]-2-hydroxypropoxy]ethyl]-3-(trifluoromethyl)biphenyl-4-carboxylic acid] | 7
3 | COc1ccc(CC(C)(C)NC[C@@H](O)CO[C@H](C)c2ccccc2-c2ccc(C(=O)O)c(C(F)(F)F)c2)c(F)c1 [Example 1-29, 2′-[1-[(2R)-3-[[1-(2-fluoro-4-methoxyphenyl)-2-methylpropan-2-yl]amino]-2-hydroxypropoxy]ethyl]-3-(trifluoromethyl)biphenyl-4-carboxylic acid] | 82
4 | C[C@@H](OC[C@H](O)CNC(C)(C)Cc1ccc(Cl)c(Cl)c1)c1ccccc1-c1ccc(C(=O)O)c(C(F)(F)F)c1 [Example 1-31, 2′-[1-[(2R)-3-[[1-(3,4-dichlorophenyl)-2-methylpropan-2-yl]amino]-2-hydroxypropoxy]ethyl]-3-(trifluoromethyl)biphenyl-4-carboxylic acid] | 5
5 | CCCc1cc(-c2ccccc2[C@@H](C)OC[C@H](O)CNC(C)(C)Cc2ccc3ccccc3c2)ccc1C(=O)O [Example 1-36, 2′-[1-[(2R)-3-[[1-(naphthalen-2-yl)-2-methylpropan-2-yl]amino]-2-hydroxypropoxy]ethyl]-3-propylbiphenyl-4-carboxylic acid] | 2
6 | Cc1c(C(=O)O)ccc(-c2ccccc2[C@@H](C)OC[C@H](O)CNC(C)(C)Cc2ccc3ccccc3c2)c1C [Example 1-37, 2,3-dimethyl-2′-[1-[(2R)-3-[[1-(naphthalen-2-yl)-2-methylpropan-2-yl]amino]-2-hydroxypropoxy]ethyl]biphenyl-4-carboxylic acid] | 3
7 | CCCc1cc(-c2ccccc2[C@@H](C)OC[C@H](O)CNC(C)(C)Cc2ccc(C)c(F)c2)ccc1C(=O)O [Example 1-38, 2′-[1-[(2R)-3-[[1-(3-fluoro-4-methylphenyl)-2-methylpropan-2-yl]amino]-2-hydroxypropoxy]ethyl]-3-propylbiphenyl-4-carboxylic acid] | 2
8 | Cc1cc(-c2ccccc2[C@@H](C)OC[C@H](O)CNC(C)(C)Cc2ccc3ccccc3c2)cc(C)c1C(=O)O [Example 1-40, 3,5-dimethyl-2′-[1-[(2R)-3-[[1-(naphthalen-2-yl)-2-methylpropan-2-yl]amino]-2-hydroxypropoxy]ethyl]biphenyl-4-carboxylic acid] | 3
9 | C[C@@H](OC[C@H](O)CNC(C)(C)Cc1ccc2ccccc2c1)c1ccccc1-c1ccc(C(=O)O)c(-c2ccccc2)c1 [Example 1-41, 2-[1-[(2R)-3-[[1-(naphthalen-2-yl)-2-methylpropan-2-yl]amino]-2-hydroxypropoxy]ethyl]-m-terphenyl-4′-carboxylic acid] | 3
10 | Cc1ccc(CC(C)(C)NC[C@@H](O)CO[C@H](C)c2ccccc2-c2ccc(C(=O)O)c(C)c2C)cc1F [Example 1-42, 2′-[1-[(2R)-3-[[1-(3-fluoro-4-methylphenyl)-2-methylpropan-2-yl]amino]-2-hydroxypropoxy]ethyl]-2,3-dimethylbiphenyl-4-carboxylic acid] | 24
11 | Cc1ccc(CC(C)(C)NC[C@@H](O)CO[C@H](C)c2ccccc2-c2cc(C)c(C(=O)O)c(C)c2)cc1F [Example 1-43, 2′-[1-[(2R)-3-[[1-(3-fluoro-4-methylphenyl)-2-methylpropan-2-yl]amino]-2-hydroxypropoxy]ethyl]-3,5-dimethylbiphenyl-4-carboxylic acid] | 16
12 | C[C@@H](OC[C@H](O)CNC(C)(C)Cc1ccc2ccccc2c1)c1ccccc1-c1ccc(CO)c(C(=O)O)c1 [Example 1-44, 4-(hydroxymethyl)-2′-[1-[(2R)-3-[[1-(naphthalen-2-yl)-2-methylpropan-2-yl]amino]-2-hydroxypropoxy]ethyl]biphenyl-3-carboxylic acid] | 9
13 | CC(C)Cc1cc(-c2ccccc2[C@@H](C)OC[C@H](O)CNC(C)(C)Cc2ccc3ccccc3c2)ccc1C(=O)O [Example 1-45, 3-isobutyl-2′-[1-[(2R)-3-[[1-(naphthalen-2-yl)-2-methylpropan-2-yl]amino]-2-hydroxypropoxy]ethyl]biphenyl-4-carboxylic acid] | 2
14 | Cc1ccc(CC(C)(C)NC[C@@H](O)CO[C@H](C)c2ccccc2-c2ccc(C(=O)O)c(CC(C)C)c2)cc1F [Example 1-46, 2′-[1-[(2R)-3-[[1-(3-fluoro-4-methylphenyl)-2-methylpropan-2-yl]amino]-2-hydroxypropoxy]ethyl]-3-isobutylbiphenyl-4-carboxylic acid] | 3
15 | Cc1ccc(CC(C)(C)NC[C@@H](O)CO[C@H](C)c2ccccc2-c2ccc(CO)c(C(=O)O)c2)cc1F [Example 1-47, 2′-[1-[(2R)-3-[[1-(3-fluoro-4-methylphenyl)-2-methylpropan-2-yl]amino]-2-hydroxypropoxy]ethyl]-4-(hydroxymethyl)biphenyl-3-carboxylic acid] | 65
16 | C[C@@H](OC[C@H](O)CNC(C)(C)Cc1ccc2ccccc2c1)c1ccccc1-c1ccc(C(=O)O)c(O)c1 [Example 1-49, 2′-[1-[(2R)-3-[[1-(naphthalen-2-yl)-2-methylpropan-2-yl]amino]-2-hydroxypropoxy]ethyl]-3-hydroxybiphenyl-4-carboxylic acid] | 2
17 | Cc1ccc(CC(C)(C)NC[C@@H](O)CO[C@H](C)c2ccccc2-c2ccc(C(=O)O)c(O)c2)cc1F [Example 1-50, 2′-[1-[(2R)-3-[[1-(3-fluoro-4-methylphenyl)-2-methylpropan-2-yl]amino]-2-hydroxypropoxy]ethyl]-3-hydroxybiphenyl-4-carboxylic acid] | 2
18 | CCc1cc(-c2ccccc2[C@@H](C)OC[C@H](O)CNC(C)(C)Cc2ccc(Cl)c(F)c2)ccc1C(=O)O [Example 1-51, 3-ethyl-2′-[1-[(2R)-3-[[1-(4-chloro-3-fluorophenyl)-2-methylpropan-2-yl]amino]-2-hydroxypropoxy]ethyl]biphenyl-4-carboxylic acid] | 4
19 | CC(C)c1cc(-c2ccccc2[C@@H](C)OC[C@H](O)CNC(C)(C)Cc2ccc(Cl)c(F)c2)ccc1C(=O)O [Example 1-52, 2′-[1-[(2R)-3-[[1-(4-chloro-3-fluorophenyl)-2-methylpropan-2-yl]amino]-2-hydroxypropoxy]ethyl]-3-isopropylbiphenyl-4-carboxylic acid] | 3
20 | CCC(C)c1cc(-c2ccccc2[C@@H](C)OC[C@H](O)CNC(C)(C)Cc2ccc(C)c(F)c2)ccc1C(=O)O (stereo partly drawn) [Example 1-53, 2′-[1-[(2R)-3-[[1-(3-fluoro-4-methylphenyl)-2-methylpropan-2-yl]amino]-2-hydroxypropoxy]ethyl]-3-(1-methylpropyl)biphenyl-4-carboxylic acid] | 15
21 | Cc1cc(C(=O)O)ccc1-c1ccccc1[C@@H](C)OC[C@H](O)CNC(C)(C)Cc1ccc2ccccc2c1 [Example 1-54, 2-methyl-2′-[1-[(2R)-3-[[1-(naphthalen-2-yl)-2-methylpropan-2-yl]amino]-2-hydroxypropoxy]ethyl]biphenyl-4-carboxylic acid] | 23
